Calls of active or inactive are those of the source. The calls are words filed in the database; no cut-off is given here.
What was measured:
[1] = target: Heat shock protein HSP90 (Homo sapiens) (UniProt P07900+P08238); experiment: Binding affinity to recombinant human HSP90 at 10 uM by Western blotting based pull-down assay; format: protein assay
[2] = system: Influenza A virus; experiment: Antiviral activity against drug treated Influenza A virus strain A/Netherlands/604/2009 cell lysate infected in dog MDCK cells assessed as reduction in viral replication at 500 nM and measured after 8 hr by crystal violet staining based plaque assay; format: functional, organism-based
[3] = system: A549; experiment: Cytotoxicity against human A549 cells assessed as reduction in cell viability at 1 uM for 10 hrs by Hoechst 33342 staining based fluorescence microscopy; format: toxicity; conditions: a549, 10 h
[4] = system: Influenza A virus; experiment: Antiviral activity against drug treated Influenza A virus strain A/Netherlands/604/2009 cell lysate infected in dog MDCK cells assessed as reduction in viral replication at 1 uM and measured after 8 hr by crystal violet staining based plaque assay; format: functional, organism-based
[5] = target: T1, Importin-5 (Homo sapiens) (UniProt O00410); experiment: Binding affinity to human IPO5 in human PC-3 cell lysate incubated for 30 mins by DTB-Cy3 dye based pull down analysis; format: subcellular
T1 sequence (whole entry): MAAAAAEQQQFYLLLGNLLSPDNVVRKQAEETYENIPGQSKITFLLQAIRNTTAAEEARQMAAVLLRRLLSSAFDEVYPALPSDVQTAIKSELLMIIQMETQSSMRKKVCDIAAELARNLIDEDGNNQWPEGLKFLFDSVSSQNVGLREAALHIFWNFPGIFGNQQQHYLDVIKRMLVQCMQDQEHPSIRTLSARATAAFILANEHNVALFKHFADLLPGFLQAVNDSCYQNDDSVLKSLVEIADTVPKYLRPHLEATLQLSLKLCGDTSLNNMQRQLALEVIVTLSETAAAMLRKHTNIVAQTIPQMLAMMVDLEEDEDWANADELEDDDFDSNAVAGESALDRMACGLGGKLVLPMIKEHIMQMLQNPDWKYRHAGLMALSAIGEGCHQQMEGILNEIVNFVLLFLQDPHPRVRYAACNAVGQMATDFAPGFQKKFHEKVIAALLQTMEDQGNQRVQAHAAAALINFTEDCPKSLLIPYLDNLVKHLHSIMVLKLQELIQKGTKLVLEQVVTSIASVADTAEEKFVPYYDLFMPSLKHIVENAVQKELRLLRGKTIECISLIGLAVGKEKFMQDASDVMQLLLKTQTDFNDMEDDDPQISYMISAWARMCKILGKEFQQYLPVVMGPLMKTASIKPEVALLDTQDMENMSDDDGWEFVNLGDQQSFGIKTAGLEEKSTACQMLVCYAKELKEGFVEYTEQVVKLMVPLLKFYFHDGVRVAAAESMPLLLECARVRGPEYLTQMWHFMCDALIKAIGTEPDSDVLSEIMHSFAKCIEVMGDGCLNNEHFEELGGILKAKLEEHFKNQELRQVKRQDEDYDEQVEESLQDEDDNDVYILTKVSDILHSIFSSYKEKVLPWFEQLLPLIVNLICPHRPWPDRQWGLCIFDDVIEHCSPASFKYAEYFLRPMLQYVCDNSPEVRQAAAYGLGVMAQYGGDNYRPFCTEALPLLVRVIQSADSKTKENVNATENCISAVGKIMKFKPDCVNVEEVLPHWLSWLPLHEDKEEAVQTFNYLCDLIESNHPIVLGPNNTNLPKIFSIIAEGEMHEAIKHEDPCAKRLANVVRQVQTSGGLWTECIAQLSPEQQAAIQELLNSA

[6] = system: A549; experiment: Upregulation of HO-1 expression in human A549 cells at 1 uM for 2 to 6 hrs by western blot analysis; format: functional, cell-based; conditions: time 2-6 hrs
[7] = system: Influenza A virus; experiment: Antiviral activity against Influenza A virus strain A/Netherlands/604/2009 infected in human A549 cells assessed as reduction in influenza virus nucleoprotein production at 1 uM preincubated for 40 mins followed by virus infection and measured after 4 to 6 hrs by Western blot analysis; format: functional, organism-based; conditions: time 280-400 min
[8] = target: T1, Importin-5 (Homo sapiens); experiment: Competitive binding affinity to human IPO5 in human PC-3 cell lysate at 10 uM for 30 mins followed by GOYA-P treatment for 30 mins by DTB-Cy3 dye based SDS-PAGE analysis; format: subcellular; conditions: time 60.0 min
[9] = target: Vimentin (Homo sapiens) (UniProt P08670); experiment: Competitive binding affinity to human Vimentin in human PC-3 cell lysate at 10 uM for 30 mins followed by WA-P2 treatment for 30 mins by SDS gel Cy3 fluorescence based MS/MS analysis; format: subcellular; conditions: time 60.0 min
Vimentin (Homo sapiens), sequence (P08670 whole entry): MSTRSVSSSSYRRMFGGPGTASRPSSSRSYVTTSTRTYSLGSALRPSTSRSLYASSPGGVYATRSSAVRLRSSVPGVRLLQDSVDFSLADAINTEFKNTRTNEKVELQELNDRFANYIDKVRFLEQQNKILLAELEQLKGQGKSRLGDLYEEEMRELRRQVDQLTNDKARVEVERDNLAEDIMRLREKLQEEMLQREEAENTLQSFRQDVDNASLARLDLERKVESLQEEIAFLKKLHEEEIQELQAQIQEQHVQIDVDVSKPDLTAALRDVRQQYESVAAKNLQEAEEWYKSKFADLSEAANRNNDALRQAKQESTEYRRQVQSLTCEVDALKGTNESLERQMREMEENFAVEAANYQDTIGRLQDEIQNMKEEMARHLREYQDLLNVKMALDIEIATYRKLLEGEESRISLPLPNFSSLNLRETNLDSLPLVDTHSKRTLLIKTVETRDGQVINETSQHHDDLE

[10] = target: T1, Importin-5 (Homo sapiens); experiment: Binding affinity to human IPO5 in human PC-3 cell lysate assessed as inhibition of IPO5 interaction with NLS PB1 cargo protein from Influenza A virus at 10 uM for 30 mins by pull-down assay; format: subcellular
[11] = target: Vimentin (Homo sapiens) (UniProt P08670); experiment: Competitive binding affinity to human Vimentin in human PC-3 cell lysate at 10 uM for 30 mins followed by WA-P1 treatment for 30 mins by SDS gel Cy3 fluorescence based MS/MS analysis; format: subcellular; conditions: time 60.0 min
[12] = target: T1, Importin-5 (Homo sapiens); experiment: Competitive binding affinity to human IPO5 in human PC-3 cell lysate at 10 uM for 30 mins followed by GOYA-P treatment for 30 mins by DTB-Cy3 dye based pull-down assay; format: subcellular; conditions: time 60.0 min
[13] = system: Influenza A virus; experiment: Antiviral activity against Influenza A virus strain A/Netherlands/604/2009 infected in human A549 cells assessed as reduction in influenza virus nucleoprotein production at 1 to 10 uM preincubated for 40 mins followed by virus infection and measured after 4 to 6 hrs by Western blot analysis; format: functional, organism-based; conditions: dose 1-10 µM, time 280-400 min
[14] = target: Annexin A2 (Homo sapiens) (UniProt P07355); experiment: Competitive binding affinity to human annexin A2 in human A549 cell lysate at 10 uM for 30 mins followed by GOYA-P treatment for 30 mins by DTB-Cy3 dye based SDS-PAGE analysis; format: subcellular; conditions: time 60.0 min
Annexin A2 (Homo sapiens), sequence (P07355 whole entry): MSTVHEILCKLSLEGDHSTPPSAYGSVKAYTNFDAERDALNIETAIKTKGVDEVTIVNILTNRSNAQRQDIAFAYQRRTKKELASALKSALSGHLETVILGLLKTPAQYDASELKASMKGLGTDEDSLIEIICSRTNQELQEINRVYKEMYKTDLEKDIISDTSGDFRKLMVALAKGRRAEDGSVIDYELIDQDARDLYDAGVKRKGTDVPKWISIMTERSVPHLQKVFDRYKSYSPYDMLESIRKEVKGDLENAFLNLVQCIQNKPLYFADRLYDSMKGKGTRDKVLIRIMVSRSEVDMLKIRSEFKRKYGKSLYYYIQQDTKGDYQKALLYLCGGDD

[15] = system: Influenza A virus; experiment: Antiviral activity against Influenza A virus strain A/Netherlands/604/2009 infected in human A549 cells assessed as reduction in influenza virus nucleoprotein production at 2.5 uM preincubated for 40 mins followed by virus infection and measured after 4 to 6 hrs by Western blot analysis; format: functional, organism-based; conditions: time 280-400 min

Compound | Activity [1] | Activity [2] | Activity [3] | Activity [4] | Activity [6] | Activity [8] | Activity [14] | further results
C#CCCC(=O)O[C@H]1C=CC(=O)[C@]2(C)[C@H]3CC[C@]4(C)[C@@H]([C@H](C)C5CC(C)=C(CO)C(=O)O5)CC[C@H]4[C@@H]3C[C@H]3O[C@]132 (stereo partly drawn) | Active | Active | Non-Toxic | Active |  |  |  | 
C#CCCC(=O)OCC1=C(C)CC([C@@H](C)[C@H]2CC[C@H]3[C@@H]4C[C@H]5O[C@]56[C@@H](O)C=CC(=O)[C@]6(C)[C@H]4CC[C@]23C)OC1=O (stereo partly drawn) | Active | Active | Non-Toxic | Active |  |  |  | 
C#CCOCC(=C)C(=O)O[C@H]1C[C@@]2(C)OC(=CC2=O)/C(CO)=C\[C@H]2OC(=O)C(=C)[C@H]12 |  |  |  |  |  |  |  | Activity [5]: Active
CC1=C(CO)C(=O)O[C@@H]([C@@H](C)[C@H]2CC[C@H]3[C@@H]4C[C@H]5O[C@]56[C@@H](O)C=CC(=O)[C@]6(CO)[C@H]4CC[C@]23C)C1 |  | Active | Non-Toxic | Active | Active | Active | Active | Activity [7]: Active; Activity [9]: Active; Activity [10]: Active; Activity [11]: Active; Activity [12]: Active; Activity [13]: Active; Activity [15]: Active
C=C(C)C(=O)O[C@H]1C[C@@]2(C)OC(=CC2=O)/C(CO)=C\[C@H]2OC(=O)C(=C)[C@H]12 [GOIAZENSOLIDE] |  |  | Non-Toxic | Active |  | Active | Active | 
COC(=O)[C@]12CCC(C)(C)C[C@@H]1[C@H]1C(=O)C=C3[C@@]4(C)C=C(C#N)C(=O)C(C)(C)[C@@H]4CC[C@@]3(C)[C@]1(C)CC2 |  |  |  | Active | Active |  |  | 
